Experimental data from paper PMC9867241, “Antioxidant and Cytotoxic Activity of New Polyphenolic Derivatives of Quinazolin-4(3H)-one: Synthesis and In Vitro Activities Evaluation” (Pharmaceutics, 2022).
Converted amounts (≈) assume the structure as drawn.

What was measured:
[1] = DPPH˙ radical scavenging assay
Method: (§1) The stock solutions (1 mg/mL) of the tested compounds and the controls were obtained, by dissolving the substances in dimethyl sulfoxide (DMSO). Using Jasco V-530, an UV-VIS spectrophotometer (Jasco International Co., Ltd., Tokyo, Japan), we performed the colorimetric determinations in low-volume single-use 10 mm width cuvettes.
(§2) The assays were performed in triplicate and the results are presented as averages for each assay.
The DPPH˙ radical scavenging assay is based on the transfer of one hydrogen from the analyzed compound to the violet stable free radical DPPH˙ (2,2-diphenyl-1-picrylhydrazyl), as we convert it into a yellow compound. The absorbance of the reagent mixed with samples presented inversely proportional values to the amount of DPPH˙ neutralized. The absorbance of the reagent was measured at λ = 517 nm, according to our previous reports. The assay was made in the presence of various concentrations of samples. The used protocol is based on the report of Brand-Williams et al..

[2] = system: LNCaP (prostate carcinoma) cells; test: Cytotoxicity, Alamar blue assay, LNCaP cells; type: cell-based; details: Homo sapiens, 24 h exposure
From the text: Normal human foreskin (BJ) fibroblasts and two types of cancer cells, namely A549 (lung adenocarcinoma) and LNCaP (prostate carcinoma) purchased from American Type Culture Collection (Manassas, VA, USA), were used in the experiments. Each cell line was maintained in a different culture medium, depending on the metabolic necessities of the cells. BJ cells were maintained in Dulbecco’s modified Eagle’s medium (DMEM) with low glucose. A549 cells were maintained in DMEM with high glucose […], while LNCaP cells were grown in Roswell Park Memorial Institute (RPMI) 1640 medium with high glucose (5 g/L). All media used were supplemented with 10% fetal bovine serum (FBS) and were refreshed every two days. Cells were used in experiments or subcultured when they reached 70–80% confluence.
In 100 µL in 96-well plates, a number of 30,000 LNCaP cells, 15,000 A549 cells, and 7500 normal (BJ) cells were seeded. Because the cells have different sizes and volumes, the purpose of the different seedings was to achieve a confluency of 70–80% after 24 h. All types of cells were further exposed to the synthesized compounds (5a–d and 6a–d) for 24 h, at a concentration ranging from 12.5 to 100 µg/mL. Post-exposure, the media were removed, and the cells were washed with phosphate buffer saline (PBS). Their viability was evaluated using Alamar blue (AB) assay as previously described. Briefly, the cells were incubated with a 200 µM resazurin solution for 4 h. Using a Synergy 2 multi-mode microplate reader, we measured the fluorescence. The measurement was performed at λexcitation = 530/25 nm; λemission = 590/35 nm. We conducted the experiments using three biological replicates, each one including 6 technical replicates. As negative controls (NC), cells exposed to culture medium containing 0.2% DMSO were used. Compared to the NC (100%), the results were expressed as relative values. We used IC50 values for the potency evaluation, and calculated them for each cell line, using the dose-effect curves obtained by fitting the experimental data with a 4-parameter logistic curve.
Mean values ± standard deviation (SD) values of at least three biological replicates were used to calculate experimental data. One-way analysis of variance (ANOVA) with a post hoc Holm–Sidak test was used to statistically examine the data. Using SigmaPlot 11.0 software (Systat, Software Inc., Chicago, IL, USA), we performed the graphical display and data analysis. From a statistical point of view, the results were considered different, at values of p < 0.05.

[3] = Cu^2+ chelation assay (murexide competition)
From the text: With murexide as a chromophoric chelator, we performed the protocol followed for the evaluation of Cu^2+ chelating activities of the compounds using an adaptation of the method presented by Cesari et al. and Wu et al.. Using Equation (6), we calculated the copper chelation capacities of the 5a–d and 6a–d compounds:(6) copper chelation (%)=(A485/A520)control−(A485/A520)sample/(A485/A520)control×100
The evaluation of the Cu^2+ chelation activity of compounds was made based on the competition for Cu^2+ with murexide. The chelating activity of compounds for the cupric ions found in the current assay is significant for the pyrogallol derivatives, being quite close to EDTA-Na2.

[4] = Ferric reducing antioxidant potential (FRAP) assay; parameters: concentration or dose not given beside the values; details: for FRAP, % of Activity of Trolox: relative to Trolox; for FRAP, % of Activity of Ascorbic Acid: relative to ascorbic acid
Method: In the ferric reducing antioxidant potential (FRAP) assay, in comparison with a blank sample prepared from DMSO mixed with FRAP reagent, the absorbance of the solutions was measured at λ = 593 nm. The compounds were tested according to a modified method proposed initially by Benzie and Strain [31]. Using Equation (4), we calculated the reducing antioxidant potential of 5a–d and 6a–d as a percentage of the activity of the reference compounds:(4) % of control activity=sample absorbance/reference absorbance×100
Ferrous ions resulting from the reduction of ferric ions in the presence of an antioxidant compound form a blue-colored complex (Fe^2+-TPTZ) at pH = 3.6 with tripyridyltriazine (2,4,6-tris(2-pyridyl)-s-triazine). The intensity of the blue complex formed is proportional to the number of ferrous ions. Compounds 5a, 5c and 5d expressed a good electron donation capacity.

[5] = ABTS˙+ radical scavenging assay
Method: as §1, §2

SMILES	IC50 [1]	IC50 (DPPH˙ scavenging) [1]	% of DPPH˙ Scavenging ([1]; 1.25 µg/mL)	% of DPPH˙ Scavenging ([1]; 2.5 µg/mL)	% of DPPH˙ Scavenging ([1]; 3.75 µg/mL)	% of DPPH˙ Scavenging ([1]; 5 µg/mL)	% of DPPH˙ Scavenging ([1]; 7.5 µg/mL)	% of DPPH˙ Scavenging ([1]; 10 µg/mL)	% of DPPH˙ Scavenging ([1]; 12.5 µg/mL)	% of DPPH˙ Scavenging ([1]; 15 µg/mL)	IC50 [2]	Cupric ions Chelation Capacity (%) ([3]; 3.36 µg/mL)	Cupric ions Chelation Capacity (%) ([3]; 8.40 µg/mL)	Cupric ions Chelation Capacity (%) ([3]; 16.80 µg/mL)	FRAP, % of Activity of Trolox [4]	FRAP, % of Activity of Ascorbic Acid [4]	IC50 [5]	IC50 (ABTS˙^+ scavenging) [5]	% of ABTS˙^+ Scavenging ([5]; 0.83 µg/mL)	% of ABTS˙^+ Scavenging ([5]; 1.67 µg/mL)	also measured
C=CCn1c(SCC(=O)NN=Cc2ccc(O)c(O)c2O)nc2ccccc2c1=O [Compound 5a, 2-((3-Allyl-4-oxo-3,4-dihydroquinazolin-2-yl)thio)-N’-(2,3,4-trihydroxybenzylidene)acetohydrazide]	6.47 µM	2.76 µg/mL (≈ 6.47 µM)	41.09%	49.94%	54.93%	62.06%	73.89%	+ (+ represents more than 95%)	+ (+ represents more than 95%)	+ (+ represents more than 95%)	45.6 µg/mL	20.33%	30.76%	40.29%	98.88%	86.18%	3.87 µM	1.65 µg/mL (≈ 3.87 µM)	38.14%	51.47%	melting point: 213 °C; % of ABTS˙^+ Scavenging ([5]; 3.33 µg/mL): 72.00%; % of ABTS˙^+ Scavenging ([5]; 4.99 µg/mL): + (+ represents more than 95%); % of ABTS˙^+ Scavenging ([5]; 6.66 µg/mL): + (+ represents more than 95%); % of ABTS˙^+ Scavenging ([5]; 9.99 µg/mL): + (+ represents more than 95%); % of ABTS˙^+ Scavenging ([5]; 13.32 µg/mL): + (+ represents more than 95%)
O=C(CSc1nc2ccccc2c(=O)n1Cc1ccccc1)NN=Cc1ccc(O)c(O)c1O [Compound 5b, 2-((3-Benzyl-4-oxo-3,4-dihydroquinazolin-2-yl)thio)-N’-(2,3,4-trihydroxybenzylidene)acetohydrazide]	7.6 µM	3.62 µg/mL (≈ 7.6 µM)	37.55%	45.21%	51.00%	56.36%	69.66%	81.12%	+ (+ represents more than 95%)	+ (+ represents more than 95%)	70 µg/mL	11.17%	25.27%	40.20%	76.93%	67.05%	4.01 µM	1.91 µg/mL (≈ 4.01 µM)	34.65%	49.32%	melting point: 228 °C; % of ABTS˙^+ Scavenging ([5]; 3.33 µg/mL): 68.62%; % of ABTS˙^+ Scavenging ([5]; 4.99 µg/mL): 85.98%; % of ABTS˙^+ Scavenging ([5]; 6.66 µg/mL): + (+ represents more than 95%); % of ABTS˙^+ Scavenging ([5]; 9.99 µg/mL): + (+ represents more than 95%); % of ABTS˙^+ Scavenging ([5]; 13.32 µg/mL): + (+ represents more than 95%)
CC(=NNC(=O)CSc1nc2ccccc2c(=O)n1Cc1ccccc1)c1ccc(O)cc1O [Compound 6b, 2-((3-Benzyl-4-oxo-3,4-dihydroquinazolin-2-yl)thio)-N’-(1-(2,4-dihydroxyphenyl)ethylidene)acetohydrazide]	> 30 µM	>15 µg/mL	- (- represents less than 5%)	- (- represents less than 5%)	- (- represents less than 5%)	- (- represents less than 5%)	- (- represents less than 5%)	- (- represents less than 5%)	- (- represents less than 5%)	11.59%	30.4 µg/mL	6.77%	17.17%	30.49%	21.24%	18.51%	8.7 µM	4.13 µg/mL (≈ 8.7 µM)	26.26%	33.32%	% of ABTS˙^+ Scavenging ([5]; 3.33 µg/mL): 44.60%; % of ABTS˙^+ Scavenging ([5]; 4.99 µg/mL): 55.88%; % of ABTS˙^+ Scavenging ([5]; 6.66 µg/mL): 68.23%; % of ABTS˙^+ Scavenging ([5]; 9.99 µg/mL): 90.98%; % of ABTS˙^+ Scavenging ([5]; 13.32 µg/mL): + (+ represents more than 95%)
CCn1c(SCC(=O)NN=C(C)c2ccc(O)cc2O)nc2ccccc2c1=O [Compound 6c, N’-(1-(2,4-dihydroxyphenyl)ethylidene)-2-((3-ethyl-4-oxo-3,4-dihydroquinazolin-2-yl)thio)acetohydrazide]	> 30 µM	>15 µg/mL	- (- represents less than 5%)	- (- represents less than 5%)	- (- represents less than 5%)	- (- represents less than 5%)	- (- represents less than 5%)	- (- represents less than 5%)	10.11%	14.89%	> 100 µg/mL	7.47%	16.75%	26.72%	29.65%	25.85%	9.84 µM	4.06 µg/mL (≈ 9.84 µM)	29.08%	34.73%	% of ABTS˙^+ Scavenging ([5]; 3.33 µg/mL): 43.19%; % of ABTS˙^+ Scavenging ([5]; 4.99 µg/mL): 54.47%; % of ABTS˙^+ Scavenging ([5]; 6.66 µg/mL): 68.58%; % of ABTS˙^+ Scavenging ([5]; 9.99 µg/mL): 91.60%; % of ABTS˙^+ Scavenging ([5]; 13.32 µg/mL): + (+ represents more than 95%)
